# Results as given in publication PMC2956650, “The Dopamine Metabolite 3-Methoxytyramine Is a Neuromodulator” (PLoS ONE, 2010).
# Read-outs that look alike come from different tables or passages of the source.
# Molecular target: T1, human trace amine associated receptor 1 (hTAAR1) (Homo sapiens, UniProt Q96RJ0)
# T1 construct: gene TAAR1; hTAAR1 with the first nine amino acids of the β2-adrenergic receptor added at N-terminus
# T1 sequence (Q96RJ0 1-339): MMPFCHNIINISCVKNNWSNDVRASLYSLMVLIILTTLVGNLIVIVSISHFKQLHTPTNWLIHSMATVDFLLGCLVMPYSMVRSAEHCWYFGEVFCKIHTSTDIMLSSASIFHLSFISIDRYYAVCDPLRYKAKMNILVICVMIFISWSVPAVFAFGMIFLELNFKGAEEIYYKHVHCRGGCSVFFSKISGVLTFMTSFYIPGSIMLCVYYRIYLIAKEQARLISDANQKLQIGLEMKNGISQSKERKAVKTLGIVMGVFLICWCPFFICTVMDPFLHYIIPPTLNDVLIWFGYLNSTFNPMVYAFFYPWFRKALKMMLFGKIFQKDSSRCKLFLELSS
# Assay: [3H]-cAMP accumulation (column assay) in HEK-293 cells transfected with hTAAR1; no effect in mock cells
# Assay type: cell-based
Compound,EC50 [µM],EC50 (read-out: EC50) [µM]
"COc1cc(CCN)ccc1O [3-MT, 3-methoxytyramine]",0.7 ± 0.18,–
NCCc1ccc(O)cc1 [tyramine],–,0.32 ± 0.1
